Test results as given in US20250382303A1, “NOVEL COMPOUND AS NADPH OXIDASE 2 INHIBITOR AND PHARMACEUTICAL COMPOSITION CONTAINING SAME” (DONGGUK UNIVERSITY INDUSTRY-ACADEMIC COOPERATION FOUNDATION, priority 2022, published 2025).

Biological target: T1, NOX2 (Homo sapiens, UniProt P04839)
T1 construct: Used for the NOX2 activity assay was human leukemia 60 cells (HL-60), which are widely, universally used to assess NOX2 activity; endogenous in cells
T1 sequence (P04839 2-570 limits assumed): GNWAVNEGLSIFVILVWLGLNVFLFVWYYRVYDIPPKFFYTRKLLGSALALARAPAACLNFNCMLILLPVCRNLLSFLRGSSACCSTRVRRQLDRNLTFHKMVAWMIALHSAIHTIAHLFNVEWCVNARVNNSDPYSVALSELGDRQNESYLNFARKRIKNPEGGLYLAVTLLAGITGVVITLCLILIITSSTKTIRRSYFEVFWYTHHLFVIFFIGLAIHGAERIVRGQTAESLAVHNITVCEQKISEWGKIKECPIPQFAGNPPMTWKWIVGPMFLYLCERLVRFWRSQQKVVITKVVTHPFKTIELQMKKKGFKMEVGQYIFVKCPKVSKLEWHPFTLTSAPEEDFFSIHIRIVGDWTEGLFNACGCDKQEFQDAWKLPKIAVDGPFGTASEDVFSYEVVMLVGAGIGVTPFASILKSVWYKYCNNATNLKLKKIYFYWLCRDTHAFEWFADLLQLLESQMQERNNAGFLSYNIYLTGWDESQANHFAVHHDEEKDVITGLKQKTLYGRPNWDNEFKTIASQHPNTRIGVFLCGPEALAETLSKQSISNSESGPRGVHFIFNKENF
T1 sequence (P13498 2-195 partner limits assumed): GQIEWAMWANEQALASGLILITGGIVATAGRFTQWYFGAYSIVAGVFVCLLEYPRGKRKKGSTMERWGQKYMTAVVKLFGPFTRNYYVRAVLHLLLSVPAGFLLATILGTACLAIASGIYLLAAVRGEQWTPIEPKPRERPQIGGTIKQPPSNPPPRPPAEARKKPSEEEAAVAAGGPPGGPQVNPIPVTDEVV
Test: NOX2 activity assay: PMA-induced ROS in ATRA-differentiated HL-60 cells (WST-1 or Amplex Red/HRP probe)
Format: cell-based
Details: for NOX2 inhibitory ability, verbal rating: WST-1, comment on Table 1; for IC50: WST-1 probe, differentiated HL-60, 200 ng/mL PMA, read-out: Inhibitory ability (NOX2)
Protocol: NOX activity was evaluated by measuring the reactive oxygen species (ROS) produced by NOX. The probes that were used to measure ROS were water soluble tetrazolium-1 (WST-1, superoxide-specific colorimetric probe) and Amplex Red/horseradish peroxidase (AR/HRP, hydrogen peroxide-specific fluorometric probe), and the concentration of the probes used was […]. For WST-1, the change in the absorbance at 450 nm was measured, and, for AR, the change in fluorescence signals was measured at 560 nm and 585 nm, respectively for excitation wavelength (Ex) and emission wavelength (Em). The optical signal was measured using the SpectraMax M3 microplate reader from Molecular Devices at 37° C. for 60 minutes.
Used for the NOX2 activity assay was human leukemia 60 cells (HL-60), which are widely, universally used to assess NOX2 activity. 1×10^5 cells/mL of HL-60 were treated with […] all-trans-retinoic acid (ATRA) for 4 days to induce differentiation. Differentiated HL-60 (diff. HL-60) was centrifuged at 200 g for 5 minutes and washed twice with HBSS. Differentiation was induced to reach 3×10^4 cells/well on a 96-well plate (diff). HL-60 was seeded. The test material was treated to cells and left in a 37° C. incubator for 60 minutes. As a control group, the same concentration of DMSO, which is the vehicle of the test material, was used. 200 ng/mL phorbol 12-myristate 13-acetate (PMA) was used as the NOX2 activator, and the production amount of ROS induced by PMA was measured for 60 minutes. […] diphenyleneiodonium (DPI), which is well known to inhibit NOX, was used as a positive control group to evaluate whether the NOX2 activity tester properly operates.

Row | SMILES | NOX2 inhibitory ability, verbal rating | IC50 [µM] | concentration dependence of NOX2 inhibition (FIG. 1)
1 | COc1cccc2c1OC1(C)CC2NC(=O)N1c1cccc(C(=O)N2CCc3ccccc3C2)c1 (stereo not shown) [Compound 25g, 10-Methoxy-2-methyl-3-(3-(1,2,3,4-tetrahydroisoquinoline-2-carbonyl)phenyl)-5,6-dihydro-2H-2,6-methanobenzo[g][1,3,5]oxadiazocin-4(3H)-one] | – | > 10 | –
2 | CC12CC(NC(=O)N1c1cccc(C(=O)N3CCc4cccc(F)c4C3)c1)c1cc(-c3ccoc3)ccc1O2 (stereo not shown) [Compound 28c, 3-(3-(8-Fluoro-1,2,3,4-tetrahydroisoquinoline-2-carbonyl)phenyl)-8-(furan-3-yl)-2-methyl-5,6-dihydro-2H-2,6-methanobenzo[g][1,3,5]oxadiazocin-4(3H)-one] | excellent inhibitory ability | > 10 | –
3 | CC12CC(NC(=O)N1c1cccc(-c3cccc(C#N)c3)c1)c1ccccc1O2 (stereo not shown) [Compound 15a, 3′-(2-Methyl-4-oxo-5,6-dihydro-2H-2,6-methanobenzo[g][1,3,5]oxadiazocin-3(4H)-yl)-[1,1′-biphenyl]-3-carbonitrile] | – | > 10 | –
4 | CN(Cc1ccccc1)C(=O)c1cccc(N2C(=O)NC3CC2(C)Oc2ccccc23)c1 (racemic) [Compound 8i, N-Benzyl-N-methyl-3-(2-methyl-4-oxo-5,6-dihydro-2H-2,6-methanobenzo[g][1,3,5]oxadiazocin-3(4H)-yl)benzamide] | – | > 10 | –
5 | CC12CC(NC(=O)N1c1cccc(C(=O)N3CCc4c(F)cccc4C3)c1)c1cc(-c3ccoc3)ccc1O2 (stereo not shown) [Compound 28d, 3-(3-(5-Fluoro-1,2,3,4-tetrahydroisoquinoline-2-carbonyl)phenyl)-8-(furan-3-yl)-2-methyl-5,6-dihydro-2H-2,6-methanobenzo[g][1,3,5]oxadiazocin-4(3H)-one] | excellent inhibitory ability | > 10 | –
6 | COc1ccc2c(c1)OC1(C)CC2NC(=O)N1c1cccc(C(=O)N2CCc3ccccc3C2)c1 (stereo not shown) [Compound 25l, 9-Methoxy-2-methyl-3-(3-(1,2,3,4-tetrahydroisoquinoline-2-carbonyl)phenyl)-5,6-dihydro-2H-2,6-methanobenzo[g][1,3,5]oxadiazocin-4(3H)-one] | – | > 10 | –

The next lines start with results.

Row | NOX2 inhibitory ability, verbal rating | IC50 [µM] | SMILES | concentration dependence of NOX2 inhibition (FIG. 1)
7 | excellent inhibitory ability | > 10 | CC12CC(NC(=O)N1c1cccc(C(=O)N3CCc4ccccc4C3)c1)c1cc(-c3cccs3)ccc1O2 (stereo not shown) [Compound 26c, 2-Methyl-3-(3-(1,2,3,4-tetrahydroisoquinoline-2-carbonyl)phenyl)-8-(thiophen-2-yl)-5,6-dihydro-2H-2,6-methanobenzo[g][1,3,5]oxadiazocin-4(3H)-one] | –
8 | – | > 10 | CC12CC(NC(=O)N1c1cccc(-c3ccco3)c1)c1ccccc1O2 (stereo not shown) [Compound 15b, 3-(3-(Furan-2-yl)phenyl)-2-methyl-5,6-dihydro-2H-2,6-methanobenzo[g][1,3,5]oxadiazocin-4(3H)-one] | –
9 | – | 1 to 10 | CC12CC(NC(=O)N1c1cccc(C(=O)N3CCc4ccccc4C3)c1)c1cccc(-c3ccsc3)c1O2 (stereo not shown) [Compound 26g, 2-Methyl-3-(3-(1,2,3,4-tetrahydroisoquinoline-2-carbonyl)phenyl)-10-(thiophen-3-yl)-5,6-dihydro-2H-2,6-methanobenzo[g][1,3,5]oxadiazocin-4(3H)-one] | –
10 | – | 1 to 10 | CC12CC(NC(=O)N1c1cccc(C(=O)N3CCc4ccccc4C3)c1)c1ccc(Br)cc1O2 (stereo not shown) [Compound 25h, 9-Bromo-2-methyl-3-(3-(1,2,3,4-tetrahydroisoquinoline-2-carbonyl)phenyl)-5,6-dihydro-2H-2,6-methanobenzo[g][1,3,5]oxadiazocin-4(3H)-one] | –
11 | excellent inhibitory ability | < 1 | CC12CC(NC(=O)N1c1cccc(C(=O)N3CCc4ccccc4C3)c1)c1cc(-c3ccoc3)ccc1O2 (stereo not shown) [Compound 26b, 8-(Furan-3-yl)-2-methyl-3-(3-(1,2,3,4-tetrahydroisoquinoline-2-carbonyl)phenyl)-5,6-dihydro-2H-2,6-methanobenzo[g][1,3,5]oxadiazocin-4(3H)-one] | inhibited NOX2 activity in a concentration-dependent manner
